Values joined by “and” are separate entries in the source; they are usually repeats but may differ in a detail not shown here. Equal entries are not always repeated. Where two headings read alike, the source gives them in different places.
Experiment: Pharmacokinetic study of Compound 20 in ICR mice
Format: in vivo
Details: for CLz/F / t1/2Z: mean
Procedure: 60 male ICR mice were split into two groups of 30. In each group the mice were prescribed Compound 20 at a dosage of 100 mg/kg. This dose was administered orally in group 1 and intraperitoneally in group 2. Each group of 30 mice was subdivided into groups of 3 mice. Blood samples were taken through orbital sinus method at 0, 0.083, 0.25, 0.5, 1, 2, 4, 6, 8 and 24 hours after administering Compound 20 and taken into tubes with anticoagulant at room temperature at least 30 minutes prior to centrifugation, then centrifuged at 10000 rpm for 5 minutes at 4° C. to separate plasma from the blood samples. Following centrifugation, the resulting serum was transferred to clean tubes and stored frozen at −80° C. Immediately following the blood samples, the brain tissue samples of mice were removed and stored frozen at −80° C.
A 20% brain homogenate was prepared by weighing brain tissue sample and adding, corresponding volume of saline into the manual homogenator. The dilution factor was 5 (w/v=1 g: 4 mL). The brain tissue sample was grinded slowly and repeatedly until it has become homogenous.
Plasma and Brain samples were centrifuged at 15777×g for 5 minutes, and 180 ul of supernatant was placed in a 96-well assay plate. To each well, 200 ul of a 50% ACN/H2O was added and the plates were shake-mixed for 3 minutes. 5 ul aliquots of each well were then analyzed using LC-MS/MS.
The standard non-compartmental model was used to generate the pharmacokinetic parameters: Cmax, Tmax, t1/2, AUC0->last, AUC0->inf, CL/F, and Vz/F. The maximum plasma concentration, Cmax, and its corresponding time, Tmax were directly recorded. Elimination rate constant kel was determined by linear regression of the terminal points of the semi-log plot of concentration against time. Elimination half-life was calculated by the formula; t12=0.693/kel. The Area Under the curve value from time 0 to 24 hours was defined as AUCt->last and calculated using the linear trapezoidal rule.

Compound: COc1cc(N(c2ccccc2)c2ccccc2)ccc1/C=C(\C#N)C(=O)O [Compound 20]
- Plasma Concentration, individual animals (1#, 2#, 3#) (100 mg/kg i.p., 0 h): 0 ng/mL
- Plasma Concentration, individual animals (1#, 2#, 3#) (100 mg/kg i.p., 0.083 h): 18800 ng/mL and 33300 ng/mL and 40400 ng/mL
- Plasma Concentration, individual animals (1#, 2#, 3#) (100 mg/kg i.p., 0.25 h): 78300 ng/mL and 29400 ng/mL and 60100 ng/mL
- Plasma Concentration, individual animals (1#, 2#, 3#) (100 mg/kg i.p., 0.5 h): 30400 ng/mL and 30200 ng/mL
- Plasma Concentration, individual animals (1#, 2#, 3#) (100 mg/kg i.p., 1 h): 45600 ng/mL and 26900 ng/mL
- Plasma Concentration, individual animals (1#, 2#, 3#) (100 mg/kg i.p., 2 h): 27800 ng/mL and 38900 ng/mL
- Plasma Concentration, individual animals (1#, 2#, 3#) (100 mg/kg i.p., 4 h): 24000 ng/mL and 26400 ng/mL
- Plasma Concentration, individual animals (1#, 2#, 3#) (100 mg/kg i.p., 6 h): 14200 ng/mL and 3980 ng/mL and 5360 ng/mL
- Plasma Concentration, individual animals (1#, 2#, 3#) (100 mg/kg i.p., 8 h): 3160 ng/mL and 2590 ng/mL
- Plasma Concentration, individual animals (1#, 2#, 3#) (100 mg/kg i.p., 24 h): 41.8 ng/mL and 249 ng/mL and 70.9 ng/mL
- CLz/F (100 mg/kg i.p., plasma): 8.32 mL/min/kg
- t1/2Z (100 mg/kg i.p., plasma): 3.19 h
- pharmacokinetics parameters (overall assessment) (100 mg/kg p.o. and i.p.): satisfactory
- Plasma Concentration, individual animals (1#, 2#, 3#) (100 mg/kg p.o., 0 h): 0 ng/mL
- Plasma Concentration, individual animals (1#, 2#, 3#) (100 mg/kg p.o., 0.083 h): 4050 ng/mL and 4040 ng/mL
- Plasma Concentration, individual animals (1#, 2#, 3#) (100 mg/kg p.o., 0.25 h): 11300 ng/mL and 6400 ng/mL
- Plasma Concentration, individual animals (1#, 2#, 3#) (100 mg/kg p.o., 0.5 h): 19100 ng/mL and 20700 ng/mL and 6580 ng/mL
- Plasma Concentration, individual animals (1#, 2#, 3#) (100 mg/kg p.o., 1 h): 3610 ng/mL and 4830 ng/mL and 12700 ng/mL
- Plasma Concentration, individual animals (1#, 2#, 3#) (100 mg/kg p.o., 2 h): 3270 ng/mL and 1380 ng/mL and 4790 ng/mL
- Plasma Concentration, individual animals (1#, 2#, 3#) (100 mg/kg p.o., 4 h): 2880 ng/mL and 5160 ng/mL and 1240 ng/mL
- Plasma Concentration, individual animals (1#, 2#, 3#) (100 mg/kg p.o., 6 h): 1470 ng/mL and 2230 ng/mL and 3720 ng/mL
- Plasma Concentration, individual animals (1#, 2#, 3#) (100 mg/kg p.o., 8 h): 5780 ng/mL and 2370 ng/mL and 3880 ng/mL
- Plasma Concentration, individual animals (1#, 2#, 3#) (100 mg/kg p.o., 24 h): 111 ng/mL and 19.3 ng/mL and 12.8 ng/mL
- CLz/F (100 mg/kg p.o., plasma): 26 mL/min/kg
- t1/2Z (100 mg/kg p.o., plasma): 3.03 h
- concentration at 0 h (male, ICR, mouse, plasma, ip, 100 mg/kg, 100 mg/kg i.p., 0 h, n = 3, read-out: Plasma Concentration, Mean): 0 ng/mL
- concentration at 0 h (male, ICR, mouse, plasma, ip, 100 mg/kg, 100 mg/kg i.p., 0 h, read-out: Plasma Concentration, individual animals (1#, 2#, 3#)): 0 ng/mL
- concentration at 0.083 h (male, ICR, mouse, plasma, ip, 100 mg/kg, 100 mg/kg i.p., 0.083 h, n = 3, read-out: Plasma Concentration, Mean): 30800 ng/mL
- concentration at 0.25 h (male, ICR, mouse, plasma, ip, 100 mg/kg, 100 mg/kg i.p., 0.25 h, n = 3, read-out: Plasma Concentration, Mean): 55900 ng/mL
- concentration at 0.5 h (male, ICR, mouse, plasma, ip, 100 mg/kg, 100 mg/kg i.p., 0.5 h, n = 3, read-out: Plasma Concentration, Mean): 37300 ng/mL
- concentration at 0.5 h (male, ICR, mouse, plasma, ip, 100 mg/kg, 100 mg/kg i.p., 0.5 h, read-out: Plasma Concentration, individual animals (1#, 2#, 3#)): 51400 ng/mL
- concentration at 1 h (male, ICR, mouse, plasma, ip, 100 mg/kg, 100 mg/kg i.p., 1 h, n = 3, read-out: Plasma Concentration, Mean): 34800 ng/mL
- concentration at 1 h (male, ICR, mouse, plasma, ip, 100 mg/kg, 100 mg/kg i.p., 1 h, read-out: Plasma Concentration, individual animals (1#, 2#, 3#)): 31800 ng/mL
- concentration at 2 h (male, ICR, mouse, plasma, ip, 100 mg/kg, 100 mg/kg i.p., 2 h, n = 3, read-out: Plasma Concentration, Mean): 35200 ng/mL
- concentration at 2 h (male, ICR, mouse, plasma, ip, 100 mg/kg, 100 mg/kg i.p., 2 h, read-out: Plasma Concentration, individual animals (1#, 2#, 3#)): 38800 ng/mL
- concentration at 4 h (male, ICR, mouse, plasma, ip, 100 mg/kg, 100 mg/kg i.p., 4 h, n = 3, read-out: Plasma Concentration, Mean): 25100 ng/mL
